Assay in all cases: FACE gel glycosylation assay
Holding throughout (format): biochemical

One assay concerns the target T1, CHSY1-CHPF2 complex (Homo sapiens, UniProt Q86X52).
T1 construct: secreted luminal part of both chains (TM helix removed), HEK Freestyle 293-F; N-terminal SUMO, His6 cut with 3C; C-terminal Avi (CHSY1), 3C site and twin-Strep (CHPF2); heterodimer, expected 169 kDa; with Chondroitin sulfate glucuronyltransferase
T1 sequence (Q86X52 68-802): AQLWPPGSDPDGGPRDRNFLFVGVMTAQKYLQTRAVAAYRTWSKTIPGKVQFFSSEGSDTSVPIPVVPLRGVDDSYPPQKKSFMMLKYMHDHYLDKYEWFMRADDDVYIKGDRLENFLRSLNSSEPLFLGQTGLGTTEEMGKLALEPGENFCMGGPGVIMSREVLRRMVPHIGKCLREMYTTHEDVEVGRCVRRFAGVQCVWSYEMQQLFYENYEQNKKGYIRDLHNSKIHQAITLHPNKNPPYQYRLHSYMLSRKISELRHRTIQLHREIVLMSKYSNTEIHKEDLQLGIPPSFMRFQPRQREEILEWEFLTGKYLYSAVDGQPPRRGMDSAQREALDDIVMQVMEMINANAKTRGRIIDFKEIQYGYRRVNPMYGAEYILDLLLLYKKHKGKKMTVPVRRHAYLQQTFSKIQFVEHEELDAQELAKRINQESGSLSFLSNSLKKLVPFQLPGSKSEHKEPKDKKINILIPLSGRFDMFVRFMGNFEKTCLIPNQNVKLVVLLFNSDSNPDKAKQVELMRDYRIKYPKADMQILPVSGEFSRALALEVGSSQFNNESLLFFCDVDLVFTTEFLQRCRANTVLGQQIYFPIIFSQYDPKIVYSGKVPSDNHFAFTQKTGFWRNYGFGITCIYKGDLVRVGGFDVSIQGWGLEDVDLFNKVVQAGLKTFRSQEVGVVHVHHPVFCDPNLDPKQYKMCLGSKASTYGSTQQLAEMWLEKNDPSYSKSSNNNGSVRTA
T1 sequence (Q9P2E5 57-772 partner): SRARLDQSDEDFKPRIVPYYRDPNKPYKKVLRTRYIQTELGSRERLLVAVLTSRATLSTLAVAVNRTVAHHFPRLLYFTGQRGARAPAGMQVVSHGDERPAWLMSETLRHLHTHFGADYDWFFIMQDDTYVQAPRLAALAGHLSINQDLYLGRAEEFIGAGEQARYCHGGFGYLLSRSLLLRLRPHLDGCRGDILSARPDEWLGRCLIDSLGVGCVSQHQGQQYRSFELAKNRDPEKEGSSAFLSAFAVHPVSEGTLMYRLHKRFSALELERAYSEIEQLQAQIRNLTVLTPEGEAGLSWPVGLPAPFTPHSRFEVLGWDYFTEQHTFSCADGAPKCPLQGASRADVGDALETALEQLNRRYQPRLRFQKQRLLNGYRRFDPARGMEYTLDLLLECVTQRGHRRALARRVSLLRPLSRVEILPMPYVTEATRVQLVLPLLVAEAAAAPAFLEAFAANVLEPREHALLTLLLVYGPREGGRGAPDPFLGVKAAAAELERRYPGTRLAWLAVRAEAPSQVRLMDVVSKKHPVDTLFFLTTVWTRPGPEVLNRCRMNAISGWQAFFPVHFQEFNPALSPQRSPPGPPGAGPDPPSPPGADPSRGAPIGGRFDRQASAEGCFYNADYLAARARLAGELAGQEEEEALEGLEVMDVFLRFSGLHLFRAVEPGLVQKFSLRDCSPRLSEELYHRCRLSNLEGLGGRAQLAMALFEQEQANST
As to conditions: acceptor TAMRA-labelled Penta-CSF1 glycopeptide, co-donor UDP-GalNAc; Mn2+ and Mg2+, pH 6.5, 30 C.

The target of a further assay is T2, CHSY1-CHPF complex (Homo sapiens, UniProt Q86X52).
T2 construct: secreted luminal part of both chains (TM helix removed), HEK Freestyle 293-F; N-terminal SUMO, His6 cut with 3C; C-terminal Avi (CHSY1), 3C site and twin-Strep (CHPF); heterodimer, expected 167 kDa; with Chondroitin sulfate synthase 2
T2 sequence (Q86X52 68-802): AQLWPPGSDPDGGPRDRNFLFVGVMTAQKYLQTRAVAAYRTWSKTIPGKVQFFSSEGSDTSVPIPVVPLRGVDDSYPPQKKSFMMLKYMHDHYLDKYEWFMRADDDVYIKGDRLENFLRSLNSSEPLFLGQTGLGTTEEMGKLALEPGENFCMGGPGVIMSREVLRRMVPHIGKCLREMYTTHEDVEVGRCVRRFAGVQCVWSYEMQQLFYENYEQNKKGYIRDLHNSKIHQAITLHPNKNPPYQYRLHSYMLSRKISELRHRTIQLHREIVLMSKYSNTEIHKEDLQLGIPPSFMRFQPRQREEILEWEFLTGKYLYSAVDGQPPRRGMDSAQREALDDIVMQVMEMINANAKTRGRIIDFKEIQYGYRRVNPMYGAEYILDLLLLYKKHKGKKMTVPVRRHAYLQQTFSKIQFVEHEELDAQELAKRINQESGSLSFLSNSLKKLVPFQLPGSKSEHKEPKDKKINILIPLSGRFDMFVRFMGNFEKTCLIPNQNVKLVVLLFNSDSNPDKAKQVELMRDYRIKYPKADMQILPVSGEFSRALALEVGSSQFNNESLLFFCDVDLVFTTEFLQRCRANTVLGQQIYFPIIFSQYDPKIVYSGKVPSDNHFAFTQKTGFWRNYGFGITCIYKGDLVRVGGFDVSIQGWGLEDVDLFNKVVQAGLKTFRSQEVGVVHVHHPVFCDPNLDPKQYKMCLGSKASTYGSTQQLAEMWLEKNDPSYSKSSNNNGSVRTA
T2 sequence (Q8IZ52 81-775 partner): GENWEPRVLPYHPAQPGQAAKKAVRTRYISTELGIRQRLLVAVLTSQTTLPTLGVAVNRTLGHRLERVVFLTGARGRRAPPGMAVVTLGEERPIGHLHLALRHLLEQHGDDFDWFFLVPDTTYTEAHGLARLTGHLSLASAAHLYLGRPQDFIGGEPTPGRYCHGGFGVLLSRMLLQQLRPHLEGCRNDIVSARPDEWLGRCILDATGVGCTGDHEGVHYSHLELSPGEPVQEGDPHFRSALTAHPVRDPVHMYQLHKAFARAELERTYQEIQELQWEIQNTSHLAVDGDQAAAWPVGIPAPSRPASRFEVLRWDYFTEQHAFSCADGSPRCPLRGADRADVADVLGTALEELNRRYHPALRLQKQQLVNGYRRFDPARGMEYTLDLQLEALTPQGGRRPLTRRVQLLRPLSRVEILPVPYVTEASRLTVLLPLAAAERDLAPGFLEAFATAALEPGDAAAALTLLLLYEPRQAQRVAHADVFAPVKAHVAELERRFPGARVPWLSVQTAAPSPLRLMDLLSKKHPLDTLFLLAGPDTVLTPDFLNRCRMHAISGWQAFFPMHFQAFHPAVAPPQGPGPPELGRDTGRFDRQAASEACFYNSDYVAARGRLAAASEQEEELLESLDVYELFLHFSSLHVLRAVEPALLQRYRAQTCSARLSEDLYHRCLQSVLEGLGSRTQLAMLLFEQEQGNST
The note with it: acceptor TAMRA-labelled Penta-CSF1 glycopeptide, co-donor UDP-GalNAc; Mn2+ and Mg2+, pH 6.5, 30 C.

In another assay the target is T3, CHSY3-CHPF2 complex (Homo sapiens, UniProt Q70JA7).
T3 construct: secreted luminal part of both chains (TM helix removed), HEK Freestyle 293-F; N-terminal SUMO, His6 cut with 3C; C-terminal Avi (CHSY3), 3C site and twin-Strep (CHPF2); heterodimer, expected 167 kDa; with Chondroitin sulfate glucuronyltransferase
T3 sequence (Q70JA7 157-882): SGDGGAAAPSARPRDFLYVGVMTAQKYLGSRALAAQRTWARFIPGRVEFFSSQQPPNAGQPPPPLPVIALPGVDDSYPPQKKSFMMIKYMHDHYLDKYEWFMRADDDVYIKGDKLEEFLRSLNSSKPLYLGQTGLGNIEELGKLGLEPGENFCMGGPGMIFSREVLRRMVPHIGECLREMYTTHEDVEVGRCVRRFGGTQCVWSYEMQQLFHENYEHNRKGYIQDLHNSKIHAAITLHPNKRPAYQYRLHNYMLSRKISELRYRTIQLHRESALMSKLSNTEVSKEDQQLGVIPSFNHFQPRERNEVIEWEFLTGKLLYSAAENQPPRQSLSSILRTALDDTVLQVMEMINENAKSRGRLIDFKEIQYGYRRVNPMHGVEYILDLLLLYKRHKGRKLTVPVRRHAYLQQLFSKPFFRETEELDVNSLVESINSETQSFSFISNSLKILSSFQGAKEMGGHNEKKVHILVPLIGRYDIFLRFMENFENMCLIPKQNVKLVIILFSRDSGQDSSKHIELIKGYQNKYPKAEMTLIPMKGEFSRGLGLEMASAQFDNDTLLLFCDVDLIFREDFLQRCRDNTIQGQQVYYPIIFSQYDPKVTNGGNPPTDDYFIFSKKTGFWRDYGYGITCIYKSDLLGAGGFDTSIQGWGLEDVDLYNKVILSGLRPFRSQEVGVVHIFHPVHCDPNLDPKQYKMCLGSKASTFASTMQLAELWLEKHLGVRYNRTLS
T3 sequence (Q9P2E5 57-772 partner): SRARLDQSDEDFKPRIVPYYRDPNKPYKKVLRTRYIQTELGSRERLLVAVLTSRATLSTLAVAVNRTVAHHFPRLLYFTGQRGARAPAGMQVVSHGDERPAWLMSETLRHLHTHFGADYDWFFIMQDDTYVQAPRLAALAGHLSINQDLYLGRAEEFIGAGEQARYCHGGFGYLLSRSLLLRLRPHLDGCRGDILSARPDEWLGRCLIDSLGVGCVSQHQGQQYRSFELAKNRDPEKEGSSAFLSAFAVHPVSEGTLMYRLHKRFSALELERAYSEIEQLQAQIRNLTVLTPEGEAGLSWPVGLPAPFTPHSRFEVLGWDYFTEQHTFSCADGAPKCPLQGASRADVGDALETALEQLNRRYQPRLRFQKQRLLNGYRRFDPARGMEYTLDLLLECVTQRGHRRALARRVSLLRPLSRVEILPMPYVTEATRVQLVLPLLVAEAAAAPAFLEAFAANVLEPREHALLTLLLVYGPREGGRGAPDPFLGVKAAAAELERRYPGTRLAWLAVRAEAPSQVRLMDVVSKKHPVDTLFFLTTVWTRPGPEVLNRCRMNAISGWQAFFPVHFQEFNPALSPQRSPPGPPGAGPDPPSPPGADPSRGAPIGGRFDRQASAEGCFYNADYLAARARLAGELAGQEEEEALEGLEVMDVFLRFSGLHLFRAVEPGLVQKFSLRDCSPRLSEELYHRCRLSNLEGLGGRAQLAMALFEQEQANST
The note with it: acceptor TAMRA-labelled Penta-CSF1 glycopeptide, co-donor UDP-GalNAc; Mn2+ and Mg2+, pH 6.5, 30 C.

In a further assay the target is T4, CHSY3-CHPF complex (Homo sapiens, UniProt Q70JA7).
T4 construct: secreted luminal part of both chains (TM helix removed), HEK Freestyle 293-F; N-terminal RPTP sigma signal, SUMO, His6 cut with 3C; C-terminal Avi (CHSY3), 3C site and twin-Strep (CHPF); heterodimer, expected 165 kDa; with Chondroitin sulfate synthase 2
T4 sequence (Q70JA7 157-882): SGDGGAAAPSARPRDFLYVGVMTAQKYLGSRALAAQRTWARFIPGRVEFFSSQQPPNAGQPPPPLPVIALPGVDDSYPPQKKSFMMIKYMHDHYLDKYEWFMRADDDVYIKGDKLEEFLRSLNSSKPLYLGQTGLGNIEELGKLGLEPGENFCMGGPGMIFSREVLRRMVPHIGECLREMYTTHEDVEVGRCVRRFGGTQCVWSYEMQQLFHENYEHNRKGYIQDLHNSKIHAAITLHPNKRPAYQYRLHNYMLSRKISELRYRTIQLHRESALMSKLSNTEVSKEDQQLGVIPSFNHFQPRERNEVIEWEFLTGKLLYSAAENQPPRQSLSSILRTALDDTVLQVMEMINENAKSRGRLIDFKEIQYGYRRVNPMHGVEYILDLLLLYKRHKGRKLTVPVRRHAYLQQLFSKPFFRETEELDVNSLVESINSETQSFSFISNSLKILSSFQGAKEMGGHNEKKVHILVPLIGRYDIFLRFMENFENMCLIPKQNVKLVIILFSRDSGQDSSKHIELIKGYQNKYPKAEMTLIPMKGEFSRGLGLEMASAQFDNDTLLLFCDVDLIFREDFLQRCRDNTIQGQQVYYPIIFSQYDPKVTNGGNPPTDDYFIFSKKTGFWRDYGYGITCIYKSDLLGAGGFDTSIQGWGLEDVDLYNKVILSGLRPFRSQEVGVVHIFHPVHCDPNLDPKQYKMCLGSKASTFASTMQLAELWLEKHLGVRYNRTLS
T4 sequence (Q8IZ52 81-775 partner): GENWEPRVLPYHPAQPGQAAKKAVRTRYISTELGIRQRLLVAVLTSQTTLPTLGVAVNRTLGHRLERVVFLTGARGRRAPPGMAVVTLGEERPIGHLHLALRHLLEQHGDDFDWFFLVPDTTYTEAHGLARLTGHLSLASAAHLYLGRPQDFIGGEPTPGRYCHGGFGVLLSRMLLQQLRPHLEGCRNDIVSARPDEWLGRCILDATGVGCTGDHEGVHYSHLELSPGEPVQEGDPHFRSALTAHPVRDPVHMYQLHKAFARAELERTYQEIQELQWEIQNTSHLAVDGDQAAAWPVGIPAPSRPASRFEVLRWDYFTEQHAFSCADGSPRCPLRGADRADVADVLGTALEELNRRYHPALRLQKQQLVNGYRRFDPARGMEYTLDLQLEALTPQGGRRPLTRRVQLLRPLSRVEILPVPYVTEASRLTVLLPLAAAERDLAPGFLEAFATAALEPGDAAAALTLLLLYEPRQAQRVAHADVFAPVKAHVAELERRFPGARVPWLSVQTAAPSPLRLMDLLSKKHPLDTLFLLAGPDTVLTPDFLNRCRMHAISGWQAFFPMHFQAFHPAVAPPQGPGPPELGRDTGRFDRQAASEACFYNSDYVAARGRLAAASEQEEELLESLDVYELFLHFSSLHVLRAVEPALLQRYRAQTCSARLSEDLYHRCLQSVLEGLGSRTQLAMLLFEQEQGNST
The note with it: acceptor TAMRA-labelled Penta-CSF1 glycopeptide, co-donor UDP-GalNAc; Mn2+ and Mg2+, pH 6.5, 30 C; N-terminal GT31 site of CHSY3.

As to `O=C(O)[C@H]1O[C@H](OP(=O)(O)OP(=O)(O)OC[C@H]2O[C@@H](n3ccc(=O)[nH]c3=O)[C@H](O)[C@@H]2O)[C@H](O)[C@@H](O)[C@@H]1O` [UDP-GlcA], the “FACE gel glycosylation assay” value on CHSY1-CHPF2 complex was “All four purified CS polymerase complexes were able to elongate the CS chain”; on CHSY1-CHPF complex, “All four purified CS polymerase complexes were able to elongate the CS chain”; at CHSY3-CHPF2 complex, “All four purified CS polymerase complexes were able to elongate the CS chain”; on CHSY3-CHPF complex it was “wild-type CHSY3-CHPF complex efficiently elongated the Penta-CSF1 and Hexa-CSF1 substrates into high molecular weight chains”.

(Values after paper PMC12748766, “Structural basis for human chondroitin sulfate chain polymerization” (Nature Communications, 2025).)
